# Biological target: T1, ALK2 (Homo sapiens, UniProt Q04771)
# T1 construct: purchased ThermoFisher Scientific (Life Technologies)
# T1 sequence (Q04771 21-509): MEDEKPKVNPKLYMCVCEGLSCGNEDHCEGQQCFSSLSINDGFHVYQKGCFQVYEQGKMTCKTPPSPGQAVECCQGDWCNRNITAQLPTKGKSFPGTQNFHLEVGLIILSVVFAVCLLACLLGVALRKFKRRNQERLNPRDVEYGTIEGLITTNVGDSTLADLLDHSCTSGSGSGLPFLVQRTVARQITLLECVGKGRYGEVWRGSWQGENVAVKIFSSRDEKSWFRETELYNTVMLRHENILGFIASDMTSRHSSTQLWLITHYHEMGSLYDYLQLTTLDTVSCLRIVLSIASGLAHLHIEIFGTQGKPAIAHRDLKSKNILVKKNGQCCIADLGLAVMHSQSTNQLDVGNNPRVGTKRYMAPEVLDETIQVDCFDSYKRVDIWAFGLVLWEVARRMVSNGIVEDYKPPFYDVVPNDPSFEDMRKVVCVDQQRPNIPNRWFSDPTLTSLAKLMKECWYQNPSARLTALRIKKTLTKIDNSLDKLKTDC
# Assay: LanthaScreen Eu Kinase Binding Assay, ALK2 inhibition
# Conditions: 1 micromolar concentration
# Protocol: Biochemical assays to measure the inhibitory effects of the compounds were performed by ThermoFisher Scientific (Life Technologies). ALK2 inhibition was tested using LanthaScreen™ Eu Kinase Binding Assay screening protocol.
row,inhibition at 1 µM [%],SMILES
1,> 50,"COc1cc(-n2cnc(Nc3nc(C4CC(OCc5ccccc5)C4)nc4c3cnn4C(C)C)c2)cc(OC)c1OC (centres unmarked) [Compound 57e, 6-(3-(benzyloxy)cyclobutyl)-1-isopropyl-N-(1-(3,4,5-trimethoxyphenyl)-1H-imidazol-4-yl)-1H-pyrazolo[3,4-d]pyrimidin-4-amine]"
2,> 50,"COc1cc(-n2cnc(Nc3nc(C4CC(O)C4)nc4c3cnn4C(C)C)c2)cc(OC)c1OC (centres unmarked) [Compound 58a, 3-(1-isopropyl-4-((1-(3,4,5-trimethoxyphenyl)-1H-imidazol-4-yl)amino)-1H-pyrazolo[3,4-d]pyrimidin-6-yl)cyclobutanol]"
3,> 50,"CCCCCC(C)c1nc(Nc2cn(-c3cc(OC)c(OC)c(OC)c3)cn2)c2cnn(C(C)C)c2n1 (centres unmarked) [Compound 59e, 6-(heptan-2-yl)-1-isopropyl-N-(1-(3,4,5-trimethoxyphenyl)-1H-imidazol-4-yl)-1H-pyrazolo[3,4-d]pyrimidin-4-amine]"
4,> 50,"C=C(C)c1nc2c(c(Nc3cn(-c4cc(OC)c(OC)c(OC)c4)cn3)n1)CCC2 [Compound 60c, 2-(prop-1-en-2-yl)-N-(1-(3,4,5-trimethoxyphenyl)-1H-imidazol-4-yl)-6,7-dihydro-5H-cyclopenta[d]pyrimidin-4-amine]"
5,> 50,"C=C(C)c1nc(Nc2cn(-c3cc(OC)c(OC)c(OC)c3)cn2)c2cccn2n1 [Compound 61c, 2-(prop-1-en-2-yl)-N-(1-(3,4,5-trimethoxyphenyl)-1H-imidazol-4-yl)pyrrolo[2,1-f][1,2,4]triazin-4-amine]"
6,> 50,"C=C(C)c1nc(Nc2cn(-c3cc(OC)c(OC)c(OC)c3)cn2)c2ncsc2n1 [Compound 63c, 5-(prop-1-en-2-yl)-N-(1-(3,4,5-trimethoxyphenyl)-1H-imidazol-4-yl)thiazolo[5,4-d]pyrimidin-7-amine]"
7,> 50,"C=C(C)c1nc(Nc2cn(-c3cc(OC)c(OC)c(OC)c3)cn2)c2ccc(OC)cc2n1 [Compound 64c, 7-methoxy-2-(prop-1-en-2-yl)-N-(1-(3,4,5-trimethoxyphenyl)-1H-imidazol-4-yl)quinazolin-4-amine]"
8,< 50,"C=C(C)c1nc(Nc2cn(-c3cc(OC)c(OC)c(OC)c3)cn2)c2cc(OC)c(OC)cc2n1 [Compound 65c, 6,7-dimethoxy-2-(prop-1-en-2-yl)-N-(1-(3,4,5-trimethoxyphenyl)-1H-imidazol-4-yl)quinazolin-4-amine]"
9,> 50,"COc1cc(-n2cnc(Nc3nc(C(C)C)nn4cccc34)c2)cc(OC)c1OC [Compound 67a, 2-isopropyl-N-(1-(3,4,5-trimethoxyphenyl)-1H-imidazol-4-yl)pyrrolo[2,1-f][1,2,4]triazin-4-amine]"
10,> 50,"C=C(C)c1nc(Nc2cn(-c3cc(OC)c(OC)c(OC)c3)cn2)nc2cc(OC)c(OC)cc12 [Compound 68b, 6,7-dimethoxy-4-(prop-1-en-2-yl)-N-(1-(3,4,5-trimethoxyphenyl)-1H-imidazol-4-yl)quinazolin-2-amine]"
11,> 50,"COc1cc(-n2cnc(Nc3nc(C(C)C)nc4c3OCC4)c2)cc(OC)c1OC [Compound 69a, 2-isopropyl-N-(1-(3,4,5-trimethoxyphenyl)-1H-imidazol-4-yl)-6,7-dihydrofuro[3,2-d]pyrimidin-4-amine]"
12,> 50,"C=C(C)c1nc(Nc2cn(-c3cc(OC)c(OC)c(OC)c3)cn2)c2ccccc2n1 [Compound 70b, 2-(prop-1-en-2-yl)-N-(1-(3,4,5-trimethoxyphenyl)-1H-imidazol-4-yl)quinazolin-4-amine]"
13,> 50,"C=C(C)c1nc2c(c(Nc3cn(-c4cc(OC)c(OC)c(OC)c4)cn3)n1)COC2 [Compound 71c, 2-(prop-1-en-2-yl)-N-(1-(3,4,5-trimethoxyphenyl)-1H-imidazol-4-yl)-5,7-dihydrofuro[3,4-d]pyrimidin-4-amine]"
14,> 50,"COc1cc(-n2cnc(Nc3nc(C(C)C)nc4c3COC4)c2)cc(OC)c1OC [Compound 72a, 2-isopropyl-N-(1-(3,4,5-trimethoxyphenyl)-1H-imidazol-4-yl)-5,7-dihydrofuro[3,4-d]pyrimidin-4-amine]"
